This note sets out measurements from ChEMBL document CHEMBL6071184, “Lasamide, a Potent Human Carbonic Anhydrase Inhibitor from the Market: Inhibition Profiling and Crystallographic Studies” (ACS Med Chem Lett, 2024).

Molecules are shown by their SMILES.

One assay addresses Carbonic anhydrase 4 (Homo sapiens, UniProt P22748). Briefly: Inhibition of full-length recombinant human CA IV-catalysed CO2 hydration by stopped-flow technique.
Assay [1] deals with Carbonic anhydrase 5B, mitochondrial (Homo sapiens, UniProt Q9Y2D0). Briefly: Inhibition of full-length recombinant human CA VB-catalysed CO2 hydration by stopped-flow technique.
The target of a further assay is Carbonic anhydrase 13 (Mus musculus, UniProt Q9D6N1). Briefly: Inhibition of mouse CA XIII-catalysed CO2 hydration by stopped-flow technique.
Another assay concerns the target Carbonic anhydrase 14 (Homo sapiens, UniProt Q9ULX7). Briefly: Inhibition of full-length recombinant human CA XIV-catalysed CO2 hydration by stopped-flow technique.
Another assay has as its target Carbonic anhydrase 3 (Homo sapiens, UniProt P07451).
In assay [2] the target is Carbonic anhydrase 5A, mitochondrial (Homo sapiens, UniProt P35218).
Description: Inhibition of full-length recombinant human CA VA-catalysed CO2 hydration by stopped-flow technique
Assay [3] deals with T1, Carbonic anhydrase 6 (Homo sapiens, UniProt P23280).
Description: Inhibition of full-length recombinant human saliva CA VI-catalysed CO2 hydration by stopped-flow technique
Assay [4] has as its target T1, Carbonic anhydrase 6. The source holds these as a separate data set.
Description: Inhibition of full-length recombinant human milk CA VI-catalysed CO2 hydration by stopped-flow technique
The target in another assay is Carbonic anhydrase 7 (Homo sapiens, UniProt P43166).

One may read the Ki as a dissociation constant, usually derived from enzyme kinetics or from competition with a known ligand.

T1 sequence (P23280 whole entry): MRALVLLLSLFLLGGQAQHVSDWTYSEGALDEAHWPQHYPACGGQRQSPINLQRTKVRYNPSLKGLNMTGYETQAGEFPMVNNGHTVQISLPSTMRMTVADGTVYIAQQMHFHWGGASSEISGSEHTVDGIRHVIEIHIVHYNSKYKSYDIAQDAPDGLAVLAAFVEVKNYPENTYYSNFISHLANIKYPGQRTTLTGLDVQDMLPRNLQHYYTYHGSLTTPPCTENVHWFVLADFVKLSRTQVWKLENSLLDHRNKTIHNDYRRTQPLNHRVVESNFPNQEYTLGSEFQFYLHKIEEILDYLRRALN
Carbonic anhydrase 13, sequence (Q9D6N1 whole entry): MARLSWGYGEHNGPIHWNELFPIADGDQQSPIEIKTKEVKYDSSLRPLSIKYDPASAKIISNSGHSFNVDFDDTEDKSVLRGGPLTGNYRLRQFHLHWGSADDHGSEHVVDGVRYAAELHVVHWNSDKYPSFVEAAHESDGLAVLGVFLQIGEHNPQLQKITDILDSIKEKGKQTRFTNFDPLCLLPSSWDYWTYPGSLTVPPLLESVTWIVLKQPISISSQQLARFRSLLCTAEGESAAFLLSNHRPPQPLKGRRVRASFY
Carbonic anhydrase 4, sequence (P22748 whole entry): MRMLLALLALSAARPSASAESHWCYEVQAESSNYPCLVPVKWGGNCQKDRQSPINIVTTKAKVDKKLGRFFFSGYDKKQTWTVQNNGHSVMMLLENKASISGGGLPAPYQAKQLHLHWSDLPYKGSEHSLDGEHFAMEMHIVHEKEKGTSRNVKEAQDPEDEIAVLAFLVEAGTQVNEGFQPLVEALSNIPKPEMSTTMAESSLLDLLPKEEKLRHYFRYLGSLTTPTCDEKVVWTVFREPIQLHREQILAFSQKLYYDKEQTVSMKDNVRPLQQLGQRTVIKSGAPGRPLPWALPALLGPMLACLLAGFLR
Carbonic anhydrase 14, sequence (Q9ULX7 whole entry): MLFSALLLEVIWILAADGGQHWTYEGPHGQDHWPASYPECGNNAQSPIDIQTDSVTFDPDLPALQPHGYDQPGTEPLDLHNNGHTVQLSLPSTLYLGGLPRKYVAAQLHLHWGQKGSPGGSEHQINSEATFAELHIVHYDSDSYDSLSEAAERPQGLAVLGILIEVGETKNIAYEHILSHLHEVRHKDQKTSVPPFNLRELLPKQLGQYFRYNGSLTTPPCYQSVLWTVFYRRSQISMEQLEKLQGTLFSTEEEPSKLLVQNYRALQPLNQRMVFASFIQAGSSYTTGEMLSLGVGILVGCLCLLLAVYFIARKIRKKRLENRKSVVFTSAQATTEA
Carbonic anhydrase 7, sequence (P43166 whole entry): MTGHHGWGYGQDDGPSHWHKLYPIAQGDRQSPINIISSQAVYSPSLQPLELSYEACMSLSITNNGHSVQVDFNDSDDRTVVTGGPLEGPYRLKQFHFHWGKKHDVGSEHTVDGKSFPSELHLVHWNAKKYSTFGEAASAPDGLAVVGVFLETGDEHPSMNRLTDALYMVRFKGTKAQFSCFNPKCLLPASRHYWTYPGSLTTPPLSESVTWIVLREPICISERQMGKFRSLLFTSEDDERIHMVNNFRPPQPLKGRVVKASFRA
Carbonic anhydrase 5B, mitochondrial, sequence (Q9Y2D0 whole entry): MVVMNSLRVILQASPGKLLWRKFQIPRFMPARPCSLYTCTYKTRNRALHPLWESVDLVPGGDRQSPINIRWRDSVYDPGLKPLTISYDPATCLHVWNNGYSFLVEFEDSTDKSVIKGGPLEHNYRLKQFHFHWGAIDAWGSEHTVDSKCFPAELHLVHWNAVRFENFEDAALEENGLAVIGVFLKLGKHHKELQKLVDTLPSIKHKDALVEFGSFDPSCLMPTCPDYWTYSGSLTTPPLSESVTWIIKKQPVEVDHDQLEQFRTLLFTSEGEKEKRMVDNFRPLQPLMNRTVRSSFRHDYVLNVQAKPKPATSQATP
Carbonic anhydrase 3, sequence (P07451 whole entry): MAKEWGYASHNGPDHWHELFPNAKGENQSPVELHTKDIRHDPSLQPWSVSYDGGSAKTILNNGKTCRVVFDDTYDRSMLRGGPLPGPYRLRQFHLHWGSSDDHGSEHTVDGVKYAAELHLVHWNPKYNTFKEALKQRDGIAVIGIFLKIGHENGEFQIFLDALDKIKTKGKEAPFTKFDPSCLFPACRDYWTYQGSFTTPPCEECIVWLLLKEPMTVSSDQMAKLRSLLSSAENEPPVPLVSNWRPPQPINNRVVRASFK
Carbonic anhydrase 5A, mitochondrial, sequence (P35218 whole entry): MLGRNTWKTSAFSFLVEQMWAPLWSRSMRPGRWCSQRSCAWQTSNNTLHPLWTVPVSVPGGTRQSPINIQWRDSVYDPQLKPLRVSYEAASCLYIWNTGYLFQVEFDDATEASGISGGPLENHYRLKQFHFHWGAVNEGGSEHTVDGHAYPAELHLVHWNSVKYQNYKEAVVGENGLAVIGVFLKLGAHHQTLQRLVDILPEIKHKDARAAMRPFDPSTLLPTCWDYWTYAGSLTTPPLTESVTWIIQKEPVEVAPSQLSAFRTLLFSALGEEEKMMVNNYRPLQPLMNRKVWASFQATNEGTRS
Description for Carbonic anhydrase 3: Inhibition of full-length recombinant human CA III-catalysed CO2 hydration by stopped-flow technique
Description for Carbonic anhydrase 7: Inhibition of full-length recombinant human CA VII-catalysed CO2 hydration by stopped-flow technique

With `NS(=O)(=O)c1cc(C(=O)O)c(Cl)cc1Cl`, the inhibition constant (Ki) was 1.91 nM at Carbonic anhydrase 4; 14.2 nM in [1]; 9.37 nM on Carbonic anhydrase 13; 11.9 nM at Carbonic anhydrase 14; greater than 50000 nM on Carbonic anhydrase 3; 3.49 nM in assay [2]. In addition, the Ki at Carbonic anhydrase 6 [3] came out at 11.7 nM; on Carbonic anhydrase 6 [4] it was 8.51 nM; at Carbonic anhydrase 7, 6.63 nM.
